# Source: US12544370B2, “Methods for cancer therapy” (ASCENTAGE PHARMA (SUZHOU) CO., LTD., priority 2018, dated 2026)
# Test system: TKI-resistant patients with chronic phase (CP) or accelerated phase (AP) CML
# Assay: Phase I study, safety / treatment related adverse events (Example 1)
# Conditions: Example 1
# Source text: The eligible patients received treatments until disease progression or intolerable toxicities. The primary efficacy endpoint in the CML AP and CP patients, was complete hematological response (CHR) and major cytogenetic response (MCyR) respectively, MCyR includes partial cytogenetic response (PCyR) and complete cytogenetic response (CCyR). Blood samples were collected at various time points on Day 1-2 and Day 27-28 during cycle 1 for PK analyses.
# • 3 to 6 subjects in each dose group (traditional 3+3 dose increasing method) • Up to 15 subjects in the MTD dose group (safety and PK characteristics) • Dose extension studies: • Up to 60 subjects (CP/CML-AP) • Extended dose selection is based on initial safety and efficacy Study Endpoints Primary Endpoint
# [1] = treatment related AE, all patients
smiles,measurement,setting,value
"Cc1ccc(C(=O)Nc2ccc(CN3CCN(C)CC3)c(C(F)(F)F)c2)cc1C#Cc1cnc2[nH]ncc2c1 [compound of formula (I-A), 3-(2-(1H-pyrazolo[3,4-b]pyridin-5-yl)ethynyl)-4-methyl-N-(4-((4-methylpiperazin-1-yl)methyl)-3-(trifluoromethyl)phenyl)-benzamide]","Lipase increased leading to dose interruption/reduction, percent of cohort",40 mg (n = 37),(2.7%)
same,Thrombocytopenia leading to dose interruption/reduction,40 mg (n = 37),11 n
same,"Thrombocytopenia leading to dose interruption/reduction, percent of cohort",40 mg (n = 37),(30%)
same,ALT increased leading to dose interruption/reduction,45 mg (n = 3),0 n (%)
same,AST increased leading to dose interruption/reduction,45 mg (n = 3),0 n (%)
same,Amylase increased leading to dose interruption/reduction,45 mg (n = 3),0 n (%)
same,Anemia leading to dose interruption/reduction,45 mg (n = 3),0 n (%)
same,Atrial fibrillation leading to dose interruption/reduction,45 mg (n = 3),0 n (%)
same,Cardiomyopathy leading to dose interruption/reduction,45 mg (n = 3),0 n (%)
same,GGT increased leading to dose interruption/reduction,45 mg (n = 3),0 n (%)
same,Hyperkalemia leading to dose interruption/reduction,45 mg (n = 3),0 n (%)
same,Hypertriglyceridemia leading to dose interruption/reduction,45 mg (n = 3),0 n (%)
same,Hypocalcemia leading to dose interruption/reduction,45 mg (n = 3),0 n (%)
same,Lacunar infarction leading to dose interruption/reduction,45 mg (n = 3),0 n (%)
same,Lipase increased leading to dose interruption/reduction,45 mg (n = 3),0 n (%)
same,Thrombocytopenia leading to dose interruption/reduction,45 mg (n = 3),2(67%) n (%)
same,ALT increased leading to dose interruption/reduction,50 mg (n = 24),1 n
same,"ALT increased leading to dose interruption/reduction, percent of cohort",50 mg (n = 24),(4.2%)
same,AST increased leading to dose interruption/reduction,50 mg (n = 24),1 n
same,"AST increased leading to dose interruption/reduction, percent of cohort",50 mg (n = 24),(4.2%)
same,Amylase increased leading to dose interruption/reduction,50 mg (n = 24),0 n (%)
same,Anemia leading to dose interruption/reduction,50 mg (n = 24),0 n (%)
same,Atrial fibrillation leading to dose interruption/reduction,50 mg (n = 24),0 n (%)
same,Cardiomyopathy leading to dose interruption/reduction,50 mg (n = 24),0 n (%)
same,GGT increased leading to dose interruption/reduction,50 mg (n = 24),0 n (%)
same,Hyperkalemia leading to dose interruption/reduction,50 mg (n = 24),0 n (%)
same,Hypertriglyceridemia leading to dose interruption/reduction,50 mg (n = 24),0 n (%)
same,Hypocalcemia leading to dose interruption/reduction,50 mg (n = 24),1 n
same,"Hypocalcemia leading to dose interruption/reduction, percent of cohort",50 mg (n = 24),(4.2%)
same,Lacunar infarction leading to dose interruption/reduction,50 mg (n = 24),1 n
same,"Lacunar infarction leading to dose interruption/reduction, percent of cohort",50 mg (n = 24),(4.2%)
same,Lipase increased leading to dose interruption/reduction,50 mg (n = 24),1 n
same,"Lipase increased leading to dose interruption/reduction, percent of cohort",50 mg (n = 24),(4.2%)
same,Thrombocytopenia leading to dose interruption/reduction,50 mg (n = 24),8 n
same,"Thrombocytopenia leading to dose interruption/reduction, percent of cohort",50 mg (n = 24),(33%)
same,ALT increased leading to dose interruption/reduction,60 mg (n = 3),0 n (%)
same,AST increased leading to dose interruption/reduction,60 mg (n = 3),0 n (%)
same,Amylase increased leading to dose interruption/reduction,60 mg (n = 3),0 n (%)
same,Anemia leading to dose interruption/reduction,60 mg (n = 3),0 n (%)
same,Atrial fibrillation leading to dose interruption/reduction,60 mg (n = 3),0 n (%)
same,Cardiomyopathy leading to dose interruption/reduction,60 mg (n = 3),1(33%) n (%)
same,GGT increased leading to dose interruption/reduction,60 mg (n = 3),0 n (%)
same,Hyperkalemia leading to dose interruption/reduction,60 mg (n = 3),0 n (%)
same,Hypertriglyceridemia leading to dose interruption/reduction,60 mg (n = 3),0 n (%)
same,Hypocalcemia leading to dose interruption/reduction,60 mg (n = 3),0 n (%)
same,Lacunar infarction leading to dose interruption/reduction,60 mg (n = 3),0 n (%)
same,Lipase increased leading to dose interruption/reduction,60 mg (n = 3),0 n (%)
same,Thrombocytopenia leading to dose interruption/reduction,60 mg (n = 3),2(67%) n (%)
same,patients with dose-limiting toxicity (DLT),60 mg cohort,Two out of 3
same,patient withdrawal from the study because of TRAEs,70 patients,no patient withdrawal
same,maximum toxic dosage (MTD),QOD,50 mg
same,tolerability,median follow-up of 4.1 (1.0-21.2) cycles,well-tolerated in all dose cohorts other than the 60 mg cohort
same,"Alanine aminotransferase increased, Any grade",[1],29 (29%) n (%)
same,"Alanine aminotransferase increased, Grade 3-4",[1],2 (2.0%) n (%)
same,"Alanine aminotransferase increased, SAE",[1],0 n (%)
same,"Anaemia, Any grade",[1],10 (10%) n (%)
same,"Anaemia, Grade 3-4",[1],9 (9.0%) n (%)
same,"Anaemia, SAE",[1],2 (2.0%) n (%)
same,"Aspartate aminotransferase inceased, Any grade",[1],31 (31%) n (%)
same,"Aspartate aminotransferase inceased, Grade 3-4",[1],2 (2.0%) n (%)
same,"Aspartate aminotransferase inceased, SAE",[1],0 n (%)
same,"Blood bilirubin increased, Any grade",[1],28 (28%) n (%)
same,"Blood bilirubin increased, Grade 3-4",[1],1 (1.0%) n (%)
same,"Blood bilirubin increased, SAE",[1],0 n (%)
same,"Blood creatine phosphokinase increased, Any grade",[1],19 (19%) n (%)
same,"Blood creatine phosphokinase increased, Grade 3-4",[1],1 (1.0%) n (%)
same,"Blood creatine phosphokinase increased, SAE",[1],0 n (%)
same,"Hypertriglyceridaemia, Any grade",[1],51 (51%) n (%)
same,"Hypertriglyceridaemia, Grade 3-4",[1],4 (4.0%) n (%)
same,"Hypertriglyceridaemia, SAE",[1],0 n (%)
same,"Hypocalcaemia, Any grade",[1],31 (31%) n (%)
same,"Hypocalcaemia, Grade 3-4",[1],0 n (%)
same,"Hypocalcaemia, SAE",[1],0 n (%)
same,"Leukopenia, Any grade",[1],17 (17%) n (%)
same,"Leukopenia, Grade 3-4",[1],15 (15%) n (%)
same,"Neutropenia, Any grade",[1],2 (2.0%) n (%)
same,"Neutropenia, Grade 3-4",[1],0 n (%)
same,"Neutropenia, SAE",[1],0 n (%)
same,"Proteinuria, Any grade",[1],11 (11%) n (%)
same,"Proteinuria, Grade 3-4",[1],1 (1.0%) n (%)
same,"Proteinuria, SAE",[1],0 n (%)
same,"Skin hyperpigmentation, Any grade",[1],35 (35%) n (%)
same,"Skin hyperpigmentation, Grade 3-4",[1],0 n (%)
same,"Skin hyperpigmentation, SAE",[1],0 n (%)
same,"Thrombocytopenia, Any grade",[1],46 (46%) n (%)
same,"Thrombocytopenia, Grade 3-4",[1],45 (45%) n (%)
same,"Thrombocytopenia, SAE",[1],5 (5.0%) n (%)
same,"leukocytosis, Any grade",[1],9 (9.0%) n (%)
same,"leukocytosis, Grade 3-4",[1],8 (8.0%) n (%)
same,"leukocytosis, SAE",[1],0 n (%)
same,"leukopenia, SAE",[1],0 n (%)
